For the assay, the target named is T1, androgen receptor (AR) (Homo sapiens, UniProt P10275, T878A).
T1 construct: LNCaP cells express endogenous AR; endogenous in cells; host or cells: LNCaP
T1 sequence (P10275 1-920 T878A): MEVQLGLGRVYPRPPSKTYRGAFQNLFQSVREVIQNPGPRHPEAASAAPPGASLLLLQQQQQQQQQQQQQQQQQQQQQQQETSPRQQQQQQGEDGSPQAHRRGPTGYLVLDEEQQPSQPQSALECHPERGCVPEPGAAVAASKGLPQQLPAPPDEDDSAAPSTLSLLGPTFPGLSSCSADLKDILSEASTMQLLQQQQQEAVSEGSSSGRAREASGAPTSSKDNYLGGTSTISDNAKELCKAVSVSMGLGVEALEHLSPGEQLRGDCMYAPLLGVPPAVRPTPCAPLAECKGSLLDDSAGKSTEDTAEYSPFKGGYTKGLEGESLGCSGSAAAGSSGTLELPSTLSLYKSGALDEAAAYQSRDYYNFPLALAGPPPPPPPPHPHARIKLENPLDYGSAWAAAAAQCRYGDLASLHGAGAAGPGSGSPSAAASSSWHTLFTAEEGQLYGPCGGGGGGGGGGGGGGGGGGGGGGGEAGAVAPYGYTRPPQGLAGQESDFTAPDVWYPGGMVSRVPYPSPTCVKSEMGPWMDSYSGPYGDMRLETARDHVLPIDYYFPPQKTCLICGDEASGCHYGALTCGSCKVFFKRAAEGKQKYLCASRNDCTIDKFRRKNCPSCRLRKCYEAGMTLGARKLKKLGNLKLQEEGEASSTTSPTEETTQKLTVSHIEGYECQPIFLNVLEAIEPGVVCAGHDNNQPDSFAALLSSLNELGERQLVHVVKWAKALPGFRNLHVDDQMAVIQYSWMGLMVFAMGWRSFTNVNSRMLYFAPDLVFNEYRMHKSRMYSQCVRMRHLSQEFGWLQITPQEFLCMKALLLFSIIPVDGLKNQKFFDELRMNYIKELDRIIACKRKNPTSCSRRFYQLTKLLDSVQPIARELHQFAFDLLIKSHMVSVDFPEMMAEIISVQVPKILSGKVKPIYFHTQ
Nature of the assay: PSA (6.1 kb)-luciferase reporter assay in LNCaP cells induced with R1881. To be noted: LNCaP cells transfected with PSA (6.1 kb)-luciferase; 1 h pre-treatment, R1881 1 nM, 48 h; relative luciferase activity. In kind it is cell-based. From the text:
LNCaP cells were employed initially for all experiments because they are well-differentiated human prostate cancer cells in which ligand-independent activation of the AR by FSK has been characterized (Nazareth et al 1996 J. Biol. Chem. 271, 19900-19907; and Sadar 1999 J. Biol. Chem. 274, 7777-7783). LNCaP cells express endogenous AR and secrete prostate-specific antigen (PSA) (Horoszewicz et al 1983Cancer Res. 43, 1809-1818). LNCaP cells can be grown either as monolayers in cell culture or as tumors in the well-characterized xenograft model that progresses to androgen independence in castrated hosts (Sato et al 1996 J. Steroid Biochem. Mol. Biol. 58, 139-146; Gleave et al 1991 Cancer Res. 51, 3753-3761; Sato et al 1997 Cancer Res. 57, 1584-1589; and Sadar et al 2002 Mol. Cancer. Ther. 1(8), 629-637). R1881 was employed since it is stable and avoids problems associated with the labile physiological ligand dihydrotestosterone (DHT). Reporter specificity may be determined using several alternative reporter gene constructs. Some well characterized ARE-driven reporter gene constructs that have been used extensively are the PSA (6.1 kb) enhance/promoter which contains several AREs and is highly inducible by androgens as well as by FSK (Ueda et al 2002 A J. Biol. Chem. 277, 7076-7085) and the ARR3-thymidine kinase (tk)-luciferase, which is an artificial reporter construct that contains three tandem repeats of the rat probasin ARE1 and ARE2 regions upstream of a luciferase reporter (Snoek et al 1996 J. Steroid Biochem. Mol. Biol. 59, 243-250).
LNCaP cells were transiently cotransfected with PSA (6.1 kb)-luciferase (0.25 μg/well) in 24-well plates for 24 h prior to pre-treatment with compounds for 1 hour before the addition of synthetic androgen, R1881 (1 nM), to induce PSA production or vehicle. The total amount of plasmid DNA transfected was normalized to 0.75 μg/well by the addition of the empty vector. After 48 h of incubation with R1881, the cells were harvested, and relative luciferase activity was determined. Test compounds were added to the cells at various concentrations and activity for each treatment was normalized to the predicted maximal activity induction (in the absence of test compounds, vehicle only). Plotting of sigmoidal curves (Boltzmann Function) and IC50 calculations were done using OriginPro 8.1 Sofware (Northampton, Mass., USA). Furthermore, toxicity was assessed by both microscopic examination and reduction of protein levels. Solubility was assessed both macroscopically (cloudy media) and microscopically (formation of granules or crystals).
Background: Reporter assays use an easily measured gene product as a stand-in for the process of interest.

Consider `C#CCOC[C@@H](O)COc1ccc(C(C)(C)c2ccc(OC[C@H](O)CCl)cc2)cc1` [Compound 16], for which the concentration for half-maximal inhibition (IC50) (in general, the midpoint of a concentration-inhibition curve) worked out at 6.94 µM.

As to `C#CCOC[C@@H](O)COc1ccc(C(C)(C)c2ccc(OC[C@@H](O)CCl)cc2)cc1` [Compound 18], the IC50 amounted to 1.3 µM. In the case of `CCCCOCC(O)COc1ccc(C(C)(C)c2ccc(OCC(O)COCCCC)cc2)cc1` (centres unmarked) [Compound 33, 3,3′-(4,4′-(propane-2,2-diyl)bis(4,1-phenylene))bis(oxy)bis(1-butoxypropan-2-ol)], the IC50 was determined as 0.7 µM. Take `CCCCOCC(O)COc1ccc(C(C)(C)c2ccc(OCC(O)CCl)cc2)cc1` (centres unmarked) [Compound 34, 1-butoxy-3-(4-(2-(4-(3-chloro-2-hydroxypropoxy)phenyl)propan-2-yl)phenoxy)propan-2-ol]: the IC50 amounted to 1.74 µM. On to `COCC(O)COc1ccc(C(C)(C)c2ccc(OCC(O)CCl)cc2)cc1` (centres unmarked) [Compound 30, 1-chloro-3-(4-(2-(4-(2-hydroxy-3-methoxypropoxy)phenyl)propan-2-yl)phenoxy)propan-2-ol], for which the IC50 was 11.5 µM. As for `CC(C)OCC(O)COc1ccc(C(C)(C)c2ccc(OCC(O)COC(C)C)cc2)cc1` (centres unmarked) [Compound 31, 3,3′-(4,4′-(propane-2,2-diyl)bis(4,1-phenylene))bis(oxy)bis(1-isopropoxypropan-2-ol)], the IC50 turned out to be 4.5 µM. On to `C#CCOCC(O)COc1ccc(C(C)(C)c2ccc(OCC(O)CCl)cc2)cc1` (centres unmarked) [Compound 3, 1-chloro-3-(4-(2-(4-(2-hydroxy-3-(prop-2-ynyloxy)propoxy)phenyl)propan-2-YL)phenoxy)propan-2-ol], for which the IC50 was found to be 1.6 µM. As for `C#CCOC[C@H](O)COc1ccc(C(C)(C)c2ccc(OC[C@@H](O)CCl)cc2)cc1` [Compound 10, (R)-1-chloro-3-(4-(2-(4-((S)-2-hydroxy-3-(prop-2-ynyloxy)propoxy)phenyl)propan-2-yl)phenoxy)propan-2-ol], the figure is 2.2 µM; as for `CC(C)OCC(O)COc1ccc(C(C)(C)c2ccc(OCC(O)CCl)cc2)cc1` (centres unmarked) [Compound 32, 1-chloro-3-(4-(2-(4-(2-hydroxy-3-isopropdxypropoxy)phenyl)propan-2-yl)phenoxy)propan-2-ol], 4.5 µM; as for `C#CCOC[C@H](O)COc1ccc(C(C)(C)c2ccc(OC[C@H](O)CCl)cc2)cc1` [Compound 12], 2.2 µM. Consider `C#CCOCC(O)COc1ccc(C(C)(C)c2ccc(OCC(O)CO)cc2)cc1` (centres unmarked) [Compound 5, 3-(4-(2-(4-(2-hydroxy-3-(prop-2-ynyloxy)propoxy)phenyl)propan-2-yl)phenoxy)propane-1,2-diol], for which the IC50 was determined as 4.5 µM.

These data come from patent US20140248263A1, “BISPHENOL COMPOUNDS AND METHODS FOR THEIR USE” (THE UNIVERSITY OF BRITISH COLUMBIA, priority 2011, published 2014).
